From patent US20210405030A1, “MEANS AND METHODS FOR DETERMINING METABOLIC ADAPTATION” (EnFin GmbH, priority 2018, published 2021)
Where two headings read alike, the source gives them in different places. Square brackets hold non-standard residues; d marks the D form. Ends that are not written are not given here. pY = N[C@@H](Cc1ccc(OP(=O)(O)O)cc1)C(=O)O

Columns and labels:
[1] = tested on: Healthy blood donor mononuclear lymphocytes; conditions: for Blood test result: reference interval 2.0±0.3
Description: The cellular model used herein discriminates between an immuno activating environment and an immune suppressive environment. An immuno activating environment comprises supplementation of growth factors/serum and allows growth and survival of blood derived immune cells. An immuno suppressive environment comprises deprivation of growth factors/serum (starvation) and diminishes growth and survival of blood derived immune cells. […] In both conditions a switch to anaerobic glycolysis was induced pharmacologically and proliferation and survival of immune cells was compared to unmodified immune cells.
Healthy blood donor mononuclear lymphocytes were cultured under normoxia (21%) and anoxia (0%). Enzyme activities of PK low affinity (PK la), PK high affinity (PK ha) and Lactate dehydrogenase (LDH) were measured in the homogenates.

PBMCs = test: Proliferation and survival of PBMCs in immuno activating (10% FCS) or immuno suppressive (starvation) environment (FIG. 1); assay type: cell-based, human; conditions: for proliferation and survival: GM-CSF 20 ng/ml, HMGB1 variants 200 nM
Description: FIG. 1: Proliferation of PBMCs under the indicated conditions; P-M2 tide: induction of glycolysis by incubation with P-M2 tide; A) control (no activator compound); B) hGM-CSF added; C) to G) HMGB1 or variant thereof added.
To evaluate to what extent and by which agent anerg immune cells could be stimulated we used recombinant human GM-CSF (20 ng/ml, FIG. 1 B) or recombinant/synthetic variants of the immune system stimulating human HMGB1 cytokine (200 nM, FIG. 1 C-G).

In the case of GGAVDDD[pY]AQFANGG [P-M2 tide], the Blood test result ([1]; 10% FCS (immuno activating environment) + P-M2 tide) is reported as 0.30, the “shift from OXPHOS to anaerobic glycolysis” value ([1]; ex vivo human immune cells, blocking the PK tetramer) is reported as “enables immune cells to shift from OXPHOS to anaerobic glycolysis” and the Blood test result ([1]; starvation (immune suppressive environment) + P-M2 tide) is reported as 1.37.

With “GM-CSF: human granulocyte monocyte colony stimulating factor, recombinant” the proliferation and survival (PBMCs; immuno-suppressed (starved) cells showing a switch to anaerobic glycolysis) was “fully rescued from cell death and showed increased proliferation (and survival)” and the proliferation and survival (PBMCs; immuno-suppressed (starved) cells with no switch to anaerobic glycolysis) was “partly rescued”.

B1: Wildtype human recombinant HMGB1: high mobility group box 1 protein, immuno-stimulating cytokine and DAMP (SEQ ID NO:3) (protein, listed as Homo sapiens)
chain: MGKGDPKKPRGKMSSYAFFVQTCREEHKKKHPDASVNFSEFSKKCSERWKTMSAKEKGKFEDMAKADKARYEREMKTYIPPKGETKKKFKDPNAPKRPPSAFFLFCSEYRPKIKGEHPGLSIGDVAKKLGEMWNNTAADDKQPYEKKAAKLKEKYEKDIAAYRAKGKPDAAKKGVVKAEKSKKKKEEEEDEEDEEDEEEEEDEEDEDEEEDDDDE
For B1, the “proliferation and survival of immune cells” value (PBMCs; 200 nM, condition not further specified) was “failed to increase proliferation and survival”.
